Reference: patent US20250203808A1, “REFRIGERANTS FOR AND METHODS OF COOLING ELECTRONICS” (HONEYWELL INTERNATIONAL INC., priority 2023, published 2025)
Read-outs that look alike come from different tables or passages of the source.

How the values were obtained:
[1] = background, commercial 3M fluids; cited from earlier work
[2] = background, commercial 3M fluids; cited from earlier work; remark: listed apart in the source
[3] = Boiling point determination; format: physicochemical; details: for boiling point: Table 1, values understood as 'about'; for BP: Table E1
Protocol: (§1) The boiling point (“BP”) and dielectric constant (“Dk”) of HFO-1438ez(E) and HFO-1438ez(Z) were determined and the results are reported below in Table E1. Static dielectric constant for new molecules was calculated using Kirkwood theory as described in papers by Wang and Anderko [P. Wang and A. Anderko, Computation of dielectric constants of solvent mixtures and electrolyte solutions, Fluid Phase Equilibria 186 (2001) 103-122] and Harvey and Lemmon [A. H. Harvey and E. W. Lemmon, Method for estimating dielectric constant of natural gas mixtures, International Journal of Thermophysics 26 (2005) 31-46]. The dielectric property of each of HFO-1438ez(E) and HFO-1438ez(Z) was determined using the Agilent 85070 Dielectric Probe. All measurements were made at ambient pressure and room temperature (approximately 23° C.). Prior to making measurements, the system was calibrated from 1 GHz to 20 GHz with an open circuit, a short circuit, and DI water (@22.4° C.) standard. The result of the calibration is shown in the Table E1 below for DI H2O, and is consistent with DI water at 22.4° C. The accuracy of the probe is given as: Dielectric constant, er′=er′+/−0.05|er*| with er″=er″+/−0.05|er*| and (loss=er″/er′).

[4] = Dielectric constant and dissipation factor, Agilent 85070 Dielectric Probe, 20 GHz; format: physicochemical; details: values 'about'; for Dielectric Constant (20 GHz): room temperature
Protocol: “Dielectric Constant” means the dielectric constant as measured in accordance with ASTM D150-11 at room temperature at 20 giga hertz (GHz).
as §1

boiling point [3] [°C] | BP [3] [°C] | Dielectric Constant (20 GHz) [4] | Dissipation Factor (20 GHz) [4] | SMILES | dielectric constant [1] | boiling point [2] [°C]
 |  |  |  | COC(F)(F)C(F)(F)C(F)(F)F [HFE7000, 1-methoxyheptafluoropropane (C3F7OCH3)] | 7.4 | 34
 |  |  |  | FC(F)(F)N1C(F)(F)C(F)(F)OC(F)(F)C1(F)F [FC-3284] |  | 50
28 | 30 | 2.43 | 0.09 | F/C=C/C(F)(C(F)(F)F)C(F)(F)F [HFO-1438ezy(E), (E)-1,3,4,4,4-pentafluoro-(3-trifluoromethyl)-but-1-ene] |  | 
55 | 55 | 7.8 |  | F/C=C\C(F)(C(F)(F)F)C(F)(F)F [HFO-1438ezy(Z), (Z)-1,3,4,4,4-pentafluoro-(3-trifluoromethyl)-but-1-ene] |  | 
